The values that follow come from BindingDB's records for doi:10.1016/j.bmcl.2007.02.049 (Gnf, 2007).

This assay has as its target Cathepsin S (Homo sapiens, UniProt P25774). The assay is described as follows: Enzyme Inhibition Assay. The note with it: pH 5.5; 37 °C. The protocol: The recombinant human cathepsin enzyme was preincubated with inhibitor for 20 minutes prior to addition of substrate. The substrate hydrolysis was monitored by the increase in fluorescence at an excitation wavelength of 380nm and an emission wavelength of 450 nm on a Gemini EM fluorometer. The reaction progress curve was fitted to the Morrison equation using PlateKi (BioKin) and the apparent inhibition constant was converted to the inhibition constant (Ki) for competitive inhibitors.

SMILES strings stand for the structures.

Sequence of Cathepsin S (P25774 whole entry): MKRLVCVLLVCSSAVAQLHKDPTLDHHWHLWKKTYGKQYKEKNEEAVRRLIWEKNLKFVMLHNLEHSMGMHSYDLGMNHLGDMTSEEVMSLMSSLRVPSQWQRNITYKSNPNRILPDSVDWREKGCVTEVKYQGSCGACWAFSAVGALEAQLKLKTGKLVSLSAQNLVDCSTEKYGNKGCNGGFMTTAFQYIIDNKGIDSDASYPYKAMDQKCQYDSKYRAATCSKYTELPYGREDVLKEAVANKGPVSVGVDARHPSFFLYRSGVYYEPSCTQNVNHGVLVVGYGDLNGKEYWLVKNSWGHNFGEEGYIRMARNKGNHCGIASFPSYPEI

`O=C(N[C@@H](CCc1ccccc1)CNc1ccc(OC(F)(F)F)cc1)[C@H](CCC1CCCC1)CC(=O)N1CCOCC1` [(2R)-2-(2-cyclopentylethyl)-4-(morpholin-4-yl)-4-oxo-N-[(2S)-4-phenyl-1-{[4-(trifluoromethoxy)phenyl]amino}butan-2-yl]butanamide]: the affinity, expressed as Ki, was 20 nM.
